Assay results published in PubChem BioAssay (NCI).
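Exposure lasted 48 hours, with cells grown in 96-well plates and compounds tested at five concentrations. Definition used: TGI = concentration required for complete inhibition of growth.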

What was measured:
Test in all cases: NCI-60 cell line screen, 48 h
786-0 renal = test system: 786-0 renal
A498 renal = test system: A498 renal
A549 NSCLC = test system: A549 NSCLC
ACHN renal = test system: ACHN renal
BT-549 breast = test system: BT-549 breast
CAKI-1 renal = test system: CAKI-1 renal
CCRF-CEM leukemia = test system: CCRF-CEM leukemia
COLO 205 colon = test system: COLO 205 colon
EKVX NSCLC = test system: EKVX NSCLC
HCC-2998 colon = test system: HCC-2998 colon
HCT-116 colon = test system: HCT-116 colon
HCT-15 colon = test system: HCT-15 colon
HL-60(TB) leukemia = test system: HL-60(TB) leukemia
HOP-92 NSCLC = test system: HOP-92 NSCLC
HS 578T breast = test system: HS 578T breast
HT29 colon = test system: HT29 colon
IGROV1 ovarian = test system: IGROV1 ovarian
K-562 leukemia = test system: K-562 leukemia
KM12 colon = test system: KM12 colon
LOX IMVI melanoma = test system: LOX IMVI melanoma
M14 melanoma = test system: M14 melanoma
MALME-3M melanoma = test system: MALME-3M melanoma
MCF7 breast = test system: MCF7 breast
MDA-MB-231 breast = test system: MDA-MB-231 breast
MDA-MB-435 = test system: MDA-MB-435
MDA-N = test system: MDA-N
MOLT-4 leukemia = test system: MOLT-4 leukemia
NCI-H226 lung = test system: NCI-H226 lung
NCI-H23 lung = test system: NCI-H23 lung
NCI-H460 lung = test system: NCI-H460 lung
NCI-H522 lung = test system: NCI-H522 lung
NCI/ADR-RES ovarian = test system: NCI/ADR-RES ovarian
OVCAR-4 ovarian = test system: OVCAR-4 ovarian
OVCAR-5 ovarian = test system: OVCAR-5 ovarian
OVCAR-8 ovarian = test system: OVCAR-8 ovarian
PC-3 prostate = test system: PC-3 prostate
RPMI-8226 leukemia = test system: RPMI-8226 leukemia
RXF 393 renal = test system: RXF 393 renal
SF-268 CNS = test system: SF-268 CNS
SF-539 CNS = test system: SF-539 CNS
SK-MEL-2 melanoma = test system: SK-MEL-2 melanoma
SK-MEL-28 melanoma = test system: SK-MEL-28 melanoma
SK-MEL-5 melanoma = test system: SK-MEL-5 melanoma
SN12C renal = test system: SN12C renal
SNB-19 CNS = test system: SNB-19 CNS
SNB-75 CNS = test system: SNB-75 CNS
SR leukemia = test system: SR leukemia
SW-620 colon = test system: SW-620 colon
T-47D breast = test system: T-47D breast
TK-10 renal = test system: TK-10 renal
U251 CNS = test system: U251 CNS
UACC-257 melanoma = test system: UACC-257 melanoma
UACC-62 melanoma = test system: UACC-62 melanoma
UO-31 renal = test system: UO-31 renal
DU-145 prostate = test system: DU-145 prostate
HOP-62 NSCLC = test system: HOP-62 NSCLC
OVCAR-3 ovarian = test system: OVCAR-3 ovarian
SK-OV-3 ovarian = test system: SK-OV-3 ovarian
SF-295 CNS = test system: SF-295 CNS

Compound: O=C1C(Cl)C2(CC(/C=C/c3ccccc3)=NN2c2cccc(S(=O)(=O)O)c2)N1c1nc2ccccc2s1 (stereo not drawn)
- TGI (786-0 renal): 31 µM
- TGI (A498 renal): 38.8 µM
- TGI (A549 NSCLC): 30.2 µM
- TGI (ACHN renal): 30.9 µM
- TGI (BT-549 breast): 28.5 µM
- TGI (CAKI-1 renal): 22.6 µM
- TGI (CCRF-CEM leukemia): 32.4 µM
- TGI (COLO 205 colon): 37.8 µM
- TGI (EKVX NSCLC): 41 µM
- TGI (HCC-2998 colon): 27.8 µM
- TGI (HCT-116 colon): 56.1 µM
- TGI (HCT-15 colon): 38.8 µM
- TGI (HL-60(TB) leukemia): 33.8 µM
- TGI (HOP-92 NSCLC): 25.4 µM
- TGI (HS 578T breast): > 100 µM
- TGI (HT29 colon): 37.2 µM
- TGI (IGROV1 ovarian): 21.1 µM
- TGI (K-562 leukemia): 54.3 µM
- TGI (KM12 colon): 30.9 µM
- TGI (LOX IMVI melanoma): 13 µM
- TGI (M14 melanoma): 36 µM
- TGI (MALME-3M melanoma): 33.3 µM
- TGI (MCF7 breast): 36.6 µM
- TGI (MDA-MB-231 breast): 29.4 µM
- TGI (MDA-MB-435): 36.1 µM
- TGI (MDA-N): 46 µM
- TGI (MOLT-4 leukemia): 42.2 µM
- TGI (NCI-H226 lung): 56.2 µM
- TGI (NCI-H23 lung): 28.1 µM
- TGI (NCI-H460 lung): 46.6 µM
- TGI (NCI-H522 lung): 20.1 µM
- TGI (NCI/ADR-RES ovarian): > 100 µM
- TGI (OVCAR-4 ovarian): 31.9 µM
- TGI (OVCAR-5 ovarian): 35.5 µM
- TGI (OVCAR-8 ovarian): 25 µM
- TGI (PC-3 prostate): 34.4 µM
- TGI (RPMI-8226 leukemia): 33.8 µM
- TGI (RXF 393 renal): 42.3 µM
- TGI (SF-268 CNS): 43.4 µM
- TGI (SF-539 CNS): 35.3 µM
- TGI (SK-MEL-2 melanoma): 40.9 µM
- TGI (SK-MEL-28 melanoma): > 100 µM
- TGI (SK-MEL-5 melanoma): 30.2 µM
- TGI (SN12C renal): 36.1 µM
- TGI (SNB-19 CNS): > 100 µM
- TGI (SNB-75 CNS): 30.3 µM
- TGI (SR leukemia): 30 µM
- TGI (SW-620 colon): 93.6 µM
- TGI (T-47D breast): 27.9 µM
- TGI (TK-10 renal): 30.9 µM
- TGI (U251 CNS): 32.1 µM
- TGI (UACC-257 melanoma): 54.4 µM
- TGI (UACC-62 melanoma): 29.8 µM
- TGI (UO-31 renal): 16.1 µM

Compound: Cc1ccc2nc(N/N=C/c3sccc3C)cc(C)c2c1
- TGI (786-0 renal): > 100 µM
- TGI (A498 renal): > 100 µM
- TGI (A549 NSCLC): > 100 µM
- TGI (ACHN renal): > 100 µM
- TGI (BT-549 breast): > 100 µM
- TGI (CAKI-1 renal): > 100 µM
- TGI (CCRF-CEM leukemia): > 100 µM
- TGI (COLO 205 colon): > 100 µM
- TGI (DU-145 prostate): > 100 µM
- TGI (EKVX NSCLC): > 100 µM
- TGI (HCC-2998 colon): > 100 µM
- TGI (HCT-116 colon): > 100 µM
- TGI (HCT-15 colon): > 100 µM
- TGI (HL-60(TB) leukemia): > 100 µM
- TGI (HOP-62 NSCLC): > 100 µM
- TGI (HOP-92 NSCLC): > 100 µM
- TGI (HS 578T breast): > 100 µM
- TGI (HT29 colon): > 100 µM
- TGI (IGROV1 ovarian): > 100 µM
- TGI (K-562 leukemia): > 100 µM
- TGI (KM12 colon): > 100 µM
- TGI (LOX IMVI melanoma): > 100 µM
- TGI (M14 melanoma): > 100 µM
- TGI (MCF7 breast): > 100 µM
- TGI (MDA-MB-231 breast): 62.2 µM
- TGI (MDA-MB-435): > 100 µM
- TGI (MDA-N): > 100 µM
- TGI (MOLT-4 leukemia): > 100 µM
- TGI (NCI-H226 lung): > 100 µM
- TGI (NCI-H23 lung): > 100 µM
- TGI (NCI/ADR-RES ovarian): > 100 µM
- TGI (OVCAR-3 ovarian): > 100 µM
- TGI (OVCAR-4 ovarian): > 100 µM
- TGI (OVCAR-5 ovarian): > 100 µM
- TGI (OVCAR-8 ovarian): > 100 µM
- TGI (PC-3 prostate): > 100 µM
- TGI (RXF 393 renal): > 100 µM
- TGI (SF-268 CNS): > 100 µM
- TGI (SK-MEL-2 melanoma): > 100 µM
- TGI (SK-MEL-28 melanoma): > 100 µM
- TGI (SK-MEL-5 melanoma): > 100 µM
- TGI (SK-OV-3 ovarian): > 100 µM
- TGI (SN12C renal): > 100 µM
- TGI (SNB-19 CNS): > 100 µM
- TGI (SNB-75 CNS): > 100 µM
- TGI (SW-620 colon): > 100 µM
- TGI (T-47D breast): > 100 µM
- TGI (TK-10 renal): > 100 µM
- TGI (U251 CNS): > 100 µM
- TGI (UACC-257 melanoma): > 100 µM
- TGI (UACC-62 melanoma): > 100 µM
- TGI (UO-31 renal): > 100 µM

Compound: CC1(c2nc3ccccc3[nH]2)CCC(C(=O)O)C(C)(C)O1 (stereo not drawn)
- TGI (786-0 renal): > 100 µM
- TGI (A549 NSCLC): > 100 µM
- TGI (ACHN renal): > 100 µM
- TGI (BT-549 breast): > 100 µM
- TGI (CAKI-1 renal): > 100 µM
- TGI (CCRF-CEM leukemia): > 100 µM
- TGI (COLO 205 colon): > 100 µM
- TGI (DU-145 prostate): > 100 µM
- TGI (EKVX NSCLC): > 100 µM
- TGI (HCC-2998 colon): > 100 µM
- TGI (HCT-116 colon): > 100 µM
- TGI (HCT-15 colon): > 100 µM
- TGI (HL-60(TB) leukemia): > 100 µM
- TGI (HOP-62 NSCLC): > 100 µM
- TGI (HOP-92 NSCLC): > 100 µM
- TGI (HS 578T breast): > 100 µM
- TGI (HT29 colon): > 100 µM
- TGI (IGROV1 ovarian): > 100 µM
- TGI (K-562 leukemia): > 100 µM
- TGI (KM12 colon): > 100 µM
- TGI (LOX IMVI melanoma): > 100 µM
- TGI (M14 melanoma): > 100 µM
- TGI (MALME-3M melanoma): > 100 µM
- TGI (MCF7 breast): > 100 µM
- TGI (MDA-MB-231 breast): > 100 µM
- TGI (MDA-MB-435): > 100 µM
- TGI (MDA-N): > 100 µM
- TGI (MOLT-4 leukemia): > 100 µM
- TGI (NCI-H226 lung): > 100 µM
- TGI (NCI-H23 lung): > 100 µM
- TGI (NCI-H522 lung): > 100 µM
- TGI (NCI/ADR-RES ovarian): > 100 µM
- TGI (OVCAR-3 ovarian): > 100 µM
- TGI (OVCAR-4 ovarian): > 100 µM
- TGI (OVCAR-5 ovarian): > 100 µM
- TGI (OVCAR-8 ovarian): > 100 µM
- TGI (PC-3 prostate): > 100 µM
- TGI (RPMI-8226 leukemia): > 100 µM
- TGI (RXF 393 renal): > 100 µM
- TGI (SF-268 CNS): > 100 µM
- TGI (SF-295 CNS): > 100 µM
- TGI (SF-539 CNS): > 100 µM
- TGI (SK-MEL-2 melanoma): > 100 µM
- TGI (SK-MEL-28 melanoma): > 100 µM
- TGI (SK-MEL-5 melanoma): > 100 µM
- TGI (SK-OV-3 ovarian): > 100 µM
- TGI (SN12C renal): > 100 µM
- TGI (SNB-19 CNS): > 100 µM
- TGI (SNB-75 CNS): > 100 µM
- TGI (SR leukemia): > 100 µM
- TGI (SW-620 colon): > 100 µM
- TGI (T-47D breast): > 100 µM
- TGI (TK-10 renal): > 100 µM
- TGI (U251 CNS): > 100 µM
- TGI (UACC-257 melanoma): > 100 µM
- TGI (UACC-62 melanoma): > 100 µM
- TGI (UO-31 renal): > 100 µM
